{"source": "patent US4410514A", "about": "“GnRH Agonists” (The Salk Institute for Biological Studies, priority 1982, dated 1983)", "system": "release of LH by the anterior pituitary in fish", "assay": "in vivo salmon assay, radioimmunoassay for LH level in blood", "conditions": "salmon of about 2 kg, about 10 μg injected per fish, blood taken about 2 hours after injection, same amount of mammalian GnRH as comparator", "procedure": "The peptide is assayed in vivo using salmon having an average weight of about 2 kg, and each fish is injected with about 10 μg. Additional fish are injected with the same amount of mammalian GnRH. Both sets are then compared with controls. About 2 hours following injection, the salmon are sacrificed, and the blood withdrawn for specific radioimmunoassay for LH level.", "note": "Where a SMILES comes first, the peptide text is derived from it. [ ]: non-standard residue; d: D form. pGlu = O=C1CC[C@@H](C(=O)O)N1", "data": [{"smiles": "CCNC(=O)[C@@H]1CCCN1C(=O)[C@H](CC(C)C)NC(=O)[C@H](Cc1c[nH]c2ccccc12)NC(=O)[C@@H](C)NC(=O)[C@H](Cc1ccc(O)cc1)NC(=O)[C@H](CO)NC(=O)[C@H](Cc1c[nH]c2ccccc12)NC(=O)[C@H](Cc1c[nH]cn1)NC(=O)[C@@H]1CCC(=O)N1", "note": "[Peptide 1, pGlu--His--Trp--Ser--Tyr--D--Ala--Trp--Leu--Pro--NHCH2 CH3] ([pGlu]HWSY[dA]WLP-NHEt)", "values": [{"measurement": "potency in causing the release of LH by the anterior pituitary, compared with mammalian GnRH", "result": "substantially more potent than mammalian GnRH"}]}]}
